Results as given in ChEMBL document CHEMBL1201862, “PubChem BioAssay data set” (2004).
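These data come from cells grown in 96-well plates and exposed to compound for 48 hours at five concentrations. At the GI50, growth is halved.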 The source made the active and inactive calls. Cut-off read from the data, not from the text of the source: active = GI50 up to about 1.1 µM and inactive = higher.

Tests used:
Experiment in all cases: growth of human tumour cells (NCI), 48 h
SK-MEL-28 = tested on: SK-MEL-28
UACC-62 = tested on: UACC-62
TK-10 = tested on: TK-10
NCI-H460 = tested on: NCI-H460
OVCAR-3 = tested on: OVCAR-3
K562 = tested on: K562
COLO 205 = tested on: COLO 205
SR = tested on: SR
NCI-H522 = tested on: NCI-H522
SK-MEL-5 = tested on: SK-MEL-5
LOX IMVI = tested on: LOX IMVI
786-0 = tested on: 786-0
M14 = tested on: M14
HCT-15 = tested on: HCT-15
HCC 2998 = tested on: HCC 2998
SK-OV-3 = tested on: SK-OV-3
UACC-257 = tested on: UACC-257
RPMI-8226 = tested on: RPMI-8226
NCI/ADR-RES = tested on: NCI/ADR-RES
PC-3 = tested on: PC-3

In the case of `CS(=O)(=O)OCCN(CCOS(C)(=O)=O)c1ccc(/C=N/N=c2/nc[nH]c3nc[nH]c23)cc1`, the GI50 (SK-MEL-28) is reported as 19.3 µM (inactive), the GI50 (UACC-62) is reported as 12.9 µM (inactive) and the GI50 (TK-10) is reported as 26.9 µM (inactive). The GI50 (NCI-H460) was 7.76 µM (inactive), the GI50 (OVCAR-3) was 13.4 µM (inactive) and the GI50 (K562) was 24.9 µM (inactive). The GI50 (COLO 205) was 17.2 µM (inactive), the GI50 (SR) was 4.57 µM (inactive) and the GI50 (NCI-H522) was 12.3 µM (inactive). The GI50 (SK-MEL-5) was 15.9 µM (inactive), the GI50 (LOX IMVI) was 15.1 µM (inactive) and the GI50 (786-0) was 16.3 µM (inactive). The GI50 (M14) was 17.6 µM (inactive), the GI50 (HCT-15) was 31 µM and the GI50 (HCC 2998) was 19.4 µM (inactive). The GI50 (SK-OV-3) was 26.2 µM (inactive), the GI50 (UACC-257) was 19.8 µM (inactive) and the GI50 (RPMI-8226) was 15.3 µM (inactive).
For `NC(CNO)C(=O)O` (configuration not stated), the GI50 (SK-MEL-28) was > 100 µM (inactive), the GI50 (UACC-62) was > 100 µM (inactive) and the GI50 (TK-10) was > 100 µM (inactive). The GI50 (NCI-H460) was > 100 µM (inactive), the GI50 (OVCAR-3) was > 100 µM (inactive) and the GI50 (COLO 205) was > 100 µM (inactive). The GI50 (NCI/ADR-RES) was > 100 µM (inactive), the GI50 (NCI-H522) was > 100 µM (inactive) and the GI50 (SK-MEL-5) was > 100 µM (inactive). The GI50 (LOX IMVI) was > 100 µM (inactive), the GI50 (786-0) was > 100 µM (inactive) and the GI50 (PC-3) was > 100 µM (inactive). For the same molecule, the GI50 (M14) was > 100 µM (inactive), the GI50 (HCT-15) was greater than 100 µM and the GI50 (SK-OV-3) was > 100 µM (inactive). For the same molecule, the GI50 (UACC-257) was > 100 µM (inactive) and the GI50 (RPMI-8226) was > 100 µM (inactive).
In the case of `CCOC(=O)C(NC(=O)c1ccc(/N=N/N(C)C)cc1)C(C)C` (configuration not stated), the GI50 (SK-MEL-28) is reported as > 100 µM (inactive), the GI50 (UACC-62) is reported as > 100 µM (inactive) and the GI50 (TK-10) is reported as 54.2 µM (inactive). The GI50 (NCI-H460) was > 100 µM (inactive), the GI50 (OVCAR-3) was > 100 µM (inactive) and the GI50 (K562) was > 100 µM (inactive). For the same molecule, the GI50 (COLO 205) was > 100 µM (inactive), the GI50 (SR) was > 100 µM (inactive) and the GI50 (NCI-H522) was > 100 µM (inactive). For the same molecule, the GI50 (SK-MEL-5) was > 100 µM (inactive), the GI50 (LOX IMVI) was > 100 µM (inactive) and the GI50 (786-0) was > 100 µM (inactive). The GI50 (M14) was > 100 µM (inactive), the GI50 (HCT-15) was greater than 100 µM and the GI50 (HCC 2998) was > 100 µM (inactive). For the same molecule, the GI50 (SK-OV-3) was > 100 µM (inactive), the GI50 (UACC-257) was > 100 µM (inactive) and the GI50 (RPMI-8226) was > 100 µM (inactive).
With `O=S1(=O)OCCOS(=O)(=O)C1(I)I` the GI50 (SK-MEL-28) was 19.9 µM (inactive), the GI50 (UACC-62) was 14.7 µM (inactive) and the GI50 (TK-10) was 27.3 µM (inactive). For the same molecule, the GI50 (OVCAR-3) was 24 µM (inactive), the GI50 (K562) was 29.5 µM (inactive) and the GI50 (COLO 205) was 16.9 µM (inactive). For the same molecule, the GI50 (SR) was 12.3 µM (inactive), the GI50 (NCI-H522) was 18.7 µM (inactive) and the GI50 (SK-MEL-5) was 15.5 µM (inactive). The GI50 (LOX IMVI) was 16.2 µM (inactive), the GI50 (786-0) was 20.1 µM (inactive) and the GI50 (M14) was 20 µM (inactive). The GI50 (HCC 2998) was 20.8 µM (inactive), the GI50 (SK-OV-3) was 21.9 µM (inactive) and the GI50 (UACC-257) was 22.6 µM (inactive). The GI50 (RPMI-8226) was 9.12 µM (inactive).
For `CNC(=O)NCCCCC(NC(=O)OCc1ccccc1)C(=O)OCc1ccccc1` (configuration not stated), the GI50 (SK-MEL-28) was 21.1 µM (inactive), the GI50 (UACC-62) was 21.5 µM (inactive) and the GI50 (TK-10) was 21.9 µM (inactive). The GI50 (NCI-H460) was 31.7 µM (inactive), the GI50 (OVCAR-3) was 16.1 µM (inactive) and the GI50 (K562) was 44.3 µM (inactive). For the same molecule, the GI50 (COLO 205) was 17.7 µM (inactive), the GI50 (SR) was 27.4 µM (inactive) and the GI50 (NCI-H522) was 14.5 µM (inactive). The GI50 (SK-MEL-5) was 48.6 µM (inactive), the GI50 (LOX IMVI) was 16.7 µM (inactive) and the GI50 (786-0) was 17.5 µM (inactive). The GI50 (M14) was 16.5 µM (inactive), the GI50 (HCT-15) was greater than 100 µM and the GI50 (HCC 2998) was 20.3 µM (inactive). For the same molecule, the GI50 (SK-OV-3) was > 100 µM (inactive), the GI50 (UACC-257) was 18.6 µM (inactive) and the GI50 (RPMI-8226) was 24.2 µM (inactive).
For `NC1=NS(=O)(=O)Nc2nc(-c3cccs3)[nH]c21`, the GI50 (SK-MEL-28) was > 100 µM (inactive), the GI50 (UACC-62) was > 100 µM (inactive) and the GI50 (TK-10) was > 100 µM (inactive). For the same molecule, the GI50 (NCI-H460) was > 100 µM (inactive), the GI50 (OVCAR-3) was > 100 µM (inactive) and the GI50 (K562) was > 100 µM (inactive). For the same molecule, the GI50 (COLO 205) was > 100 µM (inactive), the GI50 (SR) was > 100 µM (inactive) and the GI50 (NCI-H522) was > 100 µM (inactive). The GI50 (SK-MEL-5) was > 100 µM (inactive), the GI50 (LOX IMVI) was > 100 µM (inactive) and the GI50 (786-0) was > 100 µM (inactive). The GI50 (M14) was > 100 µM (inactive), the GI50 (HCT-15) was greater than 100 µM and the GI50 (HCC 2998) was > 100 µM (inactive). The GI50 (SK-OV-3) was > 100 µM (inactive) and the GI50 (RPMI-8226) was > 100 µM (inactive).
`CCN(CC)c1nnc(CCCCCCCCc2nnc(N(CC)CC)o2)o1` was tested, and the GI50 (SK-MEL-28) was > 100 µM (inactive), the GI50 (TK-10) was > 100 µM (inactive) and the GI50 (NCI-H460) was > 100 µM (inactive). For the same molecule, the GI50 (OVCAR-3) was > 100 µM (inactive), the GI50 (K562) was > 100 µM (inactive) and the GI50 (COLO 205) was > 100 µM (inactive). For the same molecule, the GI50 (NCI/ADR-RES) was > 100 µM (inactive), the GI50 (NCI-H522) was > 100 µM (inactive) and the GI50 (SK-MEL-5) was > 100 µM (inactive). For the same molecule, the GI50 (LOX IMVI) was > 100 µM (inactive), the GI50 (786-0) was > 100 µM (inactive) and the GI50 (PC-3) was > 100 µM (inactive). For the same molecule, the GI50 (M14) was > 100 µM (inactive), the GI50 (HCT-15) was greater than 100 µM and the GI50 (SK-OV-3) was > 100 µM (inactive). For the same molecule, the GI50 (UACC-257) was > 100 µM (inactive).
In the case of `C#CC1(O)CCC2[C@@H]3CCc4cc(Oc5nc(F)nc(-c6c7ccccc7cn6C)n5)ccc4C3CC[C@@]21C` (some centres not stated), the GI50 (SK-MEL-28) is reported as > 100 µM (inactive), the GI50 (UACC-62) is reported as > 100 µM (inactive) and the GI50 (TK-10) is reported as > 100 µM (inactive). The GI50 (NCI-H460) was > 79.3 µM (inactive), the GI50 (OVCAR-3) was > 100 µM (inactive) and the GI50 (K562) was > 67 µM (inactive). For the same molecule, the GI50 (COLO 205) was > 78.9 µM (inactive), the GI50 (SR) was > 46.3 µM (inactive) and the GI50 (NCI-H522) was 89.3 µM (inactive). The GI50 (LOX IMVI) was > 100 µM (inactive), the GI50 (786-0) was > 100 µM (inactive) and the GI50 (M14) was > 100 µM (inactive). For the same molecule, the GI50 (HCT-15) was greater than 72.3 µM, the GI50 (HCC 2998) was > 100 µM (inactive) and the GI50 (SK-OV-3) was > 100 µM (inactive). For the same molecule, the GI50 (UACC-257) was > 100 µM (inactive) and the GI50 (RPMI-8226) was > 47.4 µM (inactive).
